The values that follow are results of earlier work, collected in US20030143266A1, “Cationic amphiphile micellar complexes” (GENZYME CORPORATION, priority 1999, published 2003).

The test system of the data set is airway epithelial cells. To be noted: shown by elevation of cGMP levels, CFTR-dependent chloride transport, ciliary beat frequency.

“CNP-22: C-type natriuretic peptide containing 22 amino acid; binds and activates guanylate cyclase-B receptor”: the “binding to airway epithelial cells in vivo” value is reported as “Specific binding”.
